Columns and labels:
Type in all cases: cell-based
erythropoietin (Epo) [1] = assay: Inhibition of Epo-induced proliferation of UT7-Epo cells; details: stated for all three assays
Protocol: An assay for the measurement of Epo activity on the proliferation of UT7Epo cells, which are dependent on Epo for growth [Komatsu et al., Blood, 82:456-464 (1993)] was performed as follows. The Epo used in the experiment is Epogen (2000 U/ml) [Amgen, Thousand Oaks, Calif.], diluted in phosphate buffered saline (PBS) and human serum albumin (HSA) for storage at 4° C. at 200 U/ml. Dilutions of cleaved EpoR or EpoRFc protein samples were made, so that final concentrations ranged from 0.001 to 100 ng/ml.
Samples of either EpoR or EpoRFc were added to wells at 10 ul/well in quadruplicate. Epo (0.2 U/ml) was added to each well. UT7Epo cells (1×10^5 cells/ml) were plated at 100 ul/well. After the plates were incubated at 37° C. for three days, 10 ul/well of ^3 H-thymidine (diluted to […] in IMDM+10% fetal calf serum (FCS)) were added to a final concentration of 10 uCi/ml. Plates were incubated at 37° C. for four hours with ^3 H-thymidine. The 96-well plates were harvested onto glass fiber filters using the Tomtec plate harvester with 10% cold TCA and cold 95% ethanol. Solid scintillant was melted onto the filters and the samples counted. The mean and standard error of quadruplicate samples was determined.
The data were reported as the percent of positive (0.2 U/ml) Epo control and are illustrated in FIG. 1.

erythropoietin (Epo) [2] = assay: Inhibition of Epo-induced proliferation of 32D/Epo wt cells; details: stated for all three assays
Protocol: Another assay was performed for the measurement of Epo activity on the proliferation of 32D/Epo wt cells (Miura, O. et al., Mol. Cell. Biol., 13:1788-1795 (1993)). 32D/Epo wt is an IL-3 dependent cell line transfected with the human Epo receptor.
This assay is performed as described in Part A above, with the modification that the each well contains 1 U/ml Epo. The results of this assay are illustrated in FIG. 2.

erythropoietin (Epo) [3] = assay: Inhibition of Epo-induced CFU-E colony formation; details: murine bone marrow CFU-E; stated for all three assays
Protocol: A third assay for measuring the ability of Epo to stimulate the differentiation of murine bone marrow cells to hemoglobin producing mature erythrocytes (CFU-E assay) was performed as described below.
Murine bone marrow cells were flushed from the femur of female B2D6F1 mice. The marrow cells (1×10^5 cells/ml final concentration) were mixed with IMDM, 25% FCS (final) and methylcellulose (0.8% final). 0.4 ml cells was plated per well of 24-well TC plate. EpoRFc (40 ul/well) samples were added and Epo (1 U/ml) was added to each well. Plates were incubated at 37° C., 5% CO2, 6% O2 for two days.
CFU-E colonies containing 8 or more red cells were counted. The mean and standard error of triplicate samples were determined and data reported as the percent of the positive (1 U/ml) Epo control. The results of this assay are illustrated in FIG. 3.

Measured: neutralization of the biological activity of Epo

EpoR: monomeric EpoR extracellular domain protein cleaved from EpoRFc with Factor Xa
able to bind, and thereby neutralize: erythropoietin (Epo) [1] | erythropoietin (Epo) [2] | erythropoietin (Epo) [3]
